Test results taken from PubChem BioAssay (NCI).
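Five compound concentrations were applied to cells in 96-well plates for 48 hours; endpoints were derived by simple linear interpolation of the resulting dose-response curve. TGI is the concentration that stops growth completely.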

What was measured:
Assay in all cases: NCI tumour cell line growth inhibition, 48 h
HOP-62 NSCLC = system: HOP-62 NSCLC
UACC-62 melanoma = system: UACC-62 melanoma
DU-145 prostate = system: DU-145 prostate
SW-620 colon = system: SW-620 colon
UO-31 renal = system: UO-31 renal
SR leukemia = system: SR leukemia
HOP-92 NSCLC = system: HOP-92 NSCLC
HL-60(TB) leukemia = system: HL-60(TB) leukemia
EKVX NSCLC = system: EKVX NSCLC
A549 NSCLC = system: A549 NSCLC
786-0 renal = system: 786-0 renal
MDA-MB-231 breast = system: MDA-MB-231 breast
SF-268 CNS = system: SF-268 CNS
UACC-257 melanoma = system: UACC-257 melanoma
SK-MEL-2 melanoma = system: SK-MEL-2 melanoma
NCI/ADR-RES ovarian = system: NCI/ADR-RES ovarian
IGROV1 ovarian = system: IGROV1 ovarian
SNB-75 CNS = system: SNB-75 CNS
OVCAR-5 ovarian = system: OVCAR-5 ovarian
T-47D breast = system: T-47D breast
A498 renal = system: A498 renal
NCI-H23 lung = system: NCI-H23 lung
HT29 colon = system: HT29 colon
OVCAR-4 ovarian = system: OVCAR-4 ovarian
LOX IMVI melanoma = system: LOX IMVI melanoma
HCC-2998 colon = system: HCC-2998 colon
SN12C renal = system: SN12C renal
CAKI-1 renal = system: CAKI-1 renal
COLO 205 colon = system: COLO 205 colon
SF-539 CNS = system: SF-539 CNS
SNB-19 CNS = system: SNB-19 CNS
MCF7 breast = system: MCF7 breast
SF-295 CNS = system: SF-295 CNS
OVCAR-3 ovarian = system: OVCAR-3 ovarian
BT-549 breast = system: BT-549 breast
RXF 393 renal = system: RXF 393 renal
SK-MEL-5 melanoma = system: SK-MEL-5 melanoma
HCT-15 colon = system: HCT-15 colon
NCI-H522 lung = system: NCI-H522 lung
NCI-H460 lung = system: NCI-H460 lung
ACHN renal = system: ACHN renal
HS 578T breast = system: HS 578T breast
CCRF-CEM leukemia = system: CCRF-CEM leukemia
MALME-3M melanoma = system: MALME-3M melanoma
HCT-116 colon = system: HCT-116 colon
NCI-H226 lung = system: NCI-H226 lung
U251 CNS = system: U251 CNS
RPMI-8226 leukemia = system: RPMI-8226 leukemia
OVCAR-8 ovarian = system: OVCAR-8 ovarian
SK-MEL-28 melanoma = system: SK-MEL-28 melanoma
M14 melanoma = system: M14 melanoma
K-562 leukemia = system: K-562 leukemia
KM12 colon = system: KM12 colon
MDA-MB-435 = system: MDA-MB-435
TK-10 renal = system: TK-10 renal
PC-3 prostate = system: PC-3 prostate
MOLT-4 leukemia = system: MOLT-4 leukemia

SMILES: COc1ccc(Nc2nc3cc(C(F)(F)F)ccc3nc2C(=O)O)cc1OC
- TGI (HOP-62 NSCLC): > 100 µM
- TGI (UACC-62 melanoma): 53.6 µM
- TGI (DU-145 prostate): > 100 µM
- TGI (SW-620 colon): > 100 µM
- TGI (UO-31 renal): > 100 µM
- TGI (SR leukemia): 77 µM
- TGI (HOP-92 NSCLC): 74.9 µM
- TGI (HL-60(TB) leukemia): 72.2 µM
- TGI (EKVX NSCLC): > 100 µM
- TGI (A549 NSCLC): > 100 µM
- TGI (786-0 renal): > 100 µM
- TGI (MDA-MB-231 breast): 65.6 µM
- TGI (SF-268 CNS): > 100 µM
- TGI (UACC-257 melanoma): > 100 µM
- TGI (SK-MEL-2 melanoma): 33.2 µM
- TGI (NCI/ADR-RES ovarian): > 100 µM
- TGI (IGROV1 ovarian): > 100 µM
- TGI (SNB-75 CNS): > 100 µM
- TGI (OVCAR-5 ovarian): > 100 µM
- TGI (T-47D breast): > 100 µM
- TGI (A498 renal): > 100 µM
- TGI (NCI-H23 lung): 78.9 µM
- TGI (HT29 colon): > 100 µM
- TGI (OVCAR-4 ovarian): > 100 µM
- TGI (LOX IMVI melanoma): > 100 µM
- TGI (HCC-2998 colon): > 100 µM
- TGI (SN12C renal): 64.2 µM
- TGI (CAKI-1 renal): 56.3 µM
- TGI (COLO 205 colon): 69.3 µM
- TGI (SF-539 CNS): 62.3 µM
- TGI (SNB-19 CNS): > 100 µM
- TGI (MCF7 breast): 95.3 µM
- TGI (SF-295 CNS): 45.5 µM
- TGI (OVCAR-3 ovarian): 93.3 µM
- TGI (BT-549 breast): > 100 µM
- TGI (RXF 393 renal): 60.2 µM
- TGI (SK-MEL-5 melanoma): 47.9 µM
- TGI (HCT-15 colon): > 100 µM
- TGI (NCI-H522 lung): > 100 µM
- TGI (NCI-H460 lung): > 100 µM
- TGI (ACHN renal): > 100 µM
- TGI (HS 578T breast): > 100 µM
- TGI (CCRF-CEM leukemia): 67.5 µM
- TGI (MALME-3M melanoma): > 100 µM
- TGI (HCT-116 colon): 95.7 µM
- TGI (NCI-H226 lung): 55.6 µM
- TGI (U251 CNS): > 100 µM
- TGI (RPMI-8226 leukemia): 92 µM
- TGI (OVCAR-8 ovarian): > 100 µM
- TGI (SK-MEL-28 melanoma): > 100 µM
- TGI (M14 melanoma): > 100 µM
- TGI (K-562 leukemia): > 100 µM
- TGI (KM12 colon): 88.4 µM
- TGI (MDA-MB-435): > 100 µM
- TGI (TK-10 renal): > 100 µM
- TGI (PC-3 prostate): > 100 µM
- TGI (MOLT-4 leukemia): 69.5 µM
